Assays:
Format in all cases: toxicity, cell-based
U2OS = test: Incucyte cell viability with U2OS; details: human, 24 h, 10 µM, compound concentration 10 uM
Fibroblast = test: Incucyte cell viability with human fibroblast; details: 24 h, 10 µM, compound concentration 10 uM
HEK-293T = test: Incucyte cell viability with HEK293T; details: human, 24 h, 10 µM, compound concentration 10 uM
Further: unitless GR value; below 1 slowed growth and below 0 cell loss.

Row | Structure (SMILES) | Growth Rate (U2OS; replicate number 1) | Growth Rate (U2OS; replicate number 2) | Growth Rate (Fibroblast; replicate number 1) | Growth Rate (Fibroblast; replicate number 2) | Growth Rate (HEK-293T; replicate number 1) | Growth Rate (HEK-293T; replicate number 2)
1 | COc1cc(C(C)C)c2c(c1)S(=O)(=O)N(COc1cc(=O)n3cccc(OCCN4CCCCC4)c3n1)C2=O | 0.9 | 1 | -0.1 | -0.7 | -0.22 | -0.01
2 | NC(=O)c1ccc(Oc2ccc(C(N)=O)cc2)cc1 | 1 | – | 1 | – | 1 | –
3 | COc1ccccc1C(=O)Nc1cc2c(cc1N1CCCCC1)n(C)c(=O)n2C | 1 | – | 1 | – | 0.58 | 0.99
4 | O=C(CCl)Nc1ccc(S(=O)(=O)c2ccc(NC(=O)CCl)cc2)cc1 | -0.42 | 0.05 | -0.61 | -0.63 | -0.4 | -0.18
5 | N[C@@H](CC(=O)N1CCN(C(c2ccc(F)cc2)c2ccc(F)cc2)CC1)C(=O)N1Cc2ccccc2C1 | 1 | – | 1 | – | 0.66 | 0.87
6 | COc1cc2c(NC3CCN(C4CCCCC4)CC3)nc(N3CCCN(C(C)C)CC3)nc2cc1OCCCN1CCCCC1 | -0.09 | 0.29 | 0.42 | 0.22 | -0.52 | -0.39
7 | COc1cc2c(NC3CCN(CC4CCCCC4)CC3)nc(N3CCCN(C(C)C)CC3)nc2cc1OCCCN1CCCCC1 | -0.52 | -0.15 | -0.44 | -0.13 | -0.58 | -0.42
8 | N#C[C@@H]1CCCN1C(=O)[C@@H]1CCCN1C(=O)CCCc1ccccc1 | 1 | 0.94 | 1 | – | 0.6 | 0.93
9 | NC(=O)[C@H]1CCCCc2c1[nH]c1ccc(Cl)cc21 | 0.17 | 1 | 1 | – | 0.84 | 1
10 | CC(C)[C@H](NC(=O)OCc1ccccc1)C(=O)NC(CC(=O)O)C(=O)CF (some centres not stated) | 1 | 0.69 | 0.54 | 1 | 1 | 0.94
11 | O=C(NCC(=O)N1CCCCC1)Nc1ccc2nnsc2c1 | 0.93 | – | 0.36 | -0.42 | 0.75 | 0.97
12 | CC(C)[C@@H]1C(=O)N(S(C)(=O)=O)[C@@H]2CCN(C(=O)/C=C/CN3CCCCC3)[C@H]21.Cl | 1 | 0.76 | 0.66 | 1 | 0.79 | 0.98
13 | Nc1ccccc1NC(=O)CCCCCC(=O)Nc1ccccc1 | 0.46 | 1 | 1 | -0.07 | 1 | –
14 | Cc1ccc(NC2=CC(=O)c3sc(C)nc3C2=O)cc1 | -0.86 | -0.45 | -0.84 | -0.96 | -0.37 | -0.23
15 | CCOC(=O)NCCCC(=O)NCCc1ccccc1 | 0.48 | 0.84 | 1 | – | 0.61 | 0.8
16 | CC(C)C(=O)SCCCCCCC(=O)Nc1nc(-c2ccccc2)cs1 | -0.42 | 0.02 | 1 | -0.31 | 0.55 | –
17 | CC1=NN(c2ccc(C(=O)O)cc2)C(=O)/C1=C/c1ccc(-c2cc(C)c(C)cc2[N+](=O)[O-])o1 | 0.18 | 1 | 1 | – | 0.84 | 1
18 | COC(=O)C[C@@H]1N=C(c2ccc(Cl)cc2)c2c(sc(C)c2C)-n2c(C)nnc21 | 1 | – | 1 | 0.73 | 0.62 | 0.77
19 | COc1ccc2nc3[nH]nc(C)c3c(NCCOCCO)c2c1 | 0.89 | 1 | 0.52 | 0.43 | 0.57 | 0.77
20 | Cc1cc(C)c(CNC(=O)c2cc(-c3ccc(N4CCN(C)CC4)nc3)cc3c2c(C)cn3C(C)C)c(=O)[nH]1 | 0.61 | 0.86 | 1 | – | 0.42 | 0.79
21 | COc1ccc(/C=C/C(=O)NO)c(-c2ccc(-c3ccccc3)cc2)c1 | -0.07 | 1 | -0.1 | -0.52 | 0.41 | 0.49

Row | Structure (SMILES) | Growth Rate (U2OS; replicate number 1) | Growth Rate (U2OS; replicate number 2) | Growth Rate (Fibroblast; replicate number 1) | Growth Rate (Fibroblast; replicate number 2) | Growth Rate (HEK-293T; replicate number 1) | Growth Rate (HEK-293T; replicate number 2)
22 | CC1(C)c2cccc(C(=O)NO)c2CN1c1cnc(C(F)(F)F)cn1 | 0.15 | 1 | 1 | -0.04 | 0.61 | 0.71
23 | COc1cc2c(NC3CCN(C)CC3)cc(-c3ccc(C)o3)nc2cc1OCCCN1CCCC1 | -0.74 | -0.55 | 0.13 | -0.42 | -0.35 | -0.25
24 | Cc1cc(/N=N/c2ccc3c(c2)CCC(=O)N3)c(N)cc1O | 0.36 | 1 | 1 | – | 0.63 | 0.88
25 | CC(=O)Nc1ccc(C(=O)Nc2ccc(F)cc2N)cc1 | 1 | – | 1 | – | 0.67 | 1
26 | CC(C)(O)c1ccc(-c2nc3c(F)cc(F)cc3c(=O)[nH]2)cc1 | 0.23 | 1 | 0.13 | 0.87 | 0.45 | 1
27 | COc1nc(Nc2cc(S(C)(=O)=O)ccc2N[C@@H](c2cccc3c2OC(F)(F)O3)c2ncccc2Cl)nc(N2CCNCC2)n1 | -0.91 | -0.02 | -0.22 | -0.7 | -0.57 | -0.39
28 | Cc1ncccc1-c1cnc(NCc2c(F)ccc3c2CCO3)n2cnnc12 | 1 | 0.88 | 0.59 | 0.1 | 0.64 | 1
29 | CC(C)(C)OC(=O)Nc1ccc(-c2cc(C(=O)NCCCCCCC(=O)NO)no2)cc1 | 0.28 | 0.63 | 1 | -0.09 | 0.72 | 0.67
30 | NC(=O)c1cccc(NC(=O)CCC(=O)NCCc2cn(CCNS(=O)(=O)c3cccc(C(=O)O)c3)nn2)c1 | 0.49 | 1 | 0.46 | 1 | 0.69 | 0.77
31 | CNC[C@@H](O)COc1ccc(Cl)c(-c2nc(-c3c(C)noc3C)c(C)c(N3CC4(CCN(C(=O)OC)CC4)C3)n2)c1 | 1 | – | 0.24 | 1 | 0.46 | 0.73
32 | CN(C)Cc1ccc(S(=O)(=O)n2ccc(/C=C/C(=O)NO)c2)cc1.Cl | 0.51 | -0.17 | 0.79 | -0.05 | 0.53 | 0.75
33 | CCCOc1cc(OCCCCN(C)C)cc(Oc2cc3c(cc2NS(=O)(=O)c2ccc(OC)c(OC)c2)n(C)c(=O)n3C)c1.O=C(O)C(F)(F)F | 0.87 | 1 | 1 | – | 0.59 | 0.72
34 | O=C([O-])CCNc1cc(N2CCc3ccccc3CC2)nc(-c2cccnc2)n1.[Na+] | 0.55 | 1 | 1 | – | 0.83 | 0.92
35 | Cl.Cl.Nc1ncnc2c1ncn2[C@@H]1O[C@H](C(=O)N2CCN(CC(=O)Nc3cccc4c3CNC4=O)CC2)[C@@H](O)[C@H]1O | 1 | 0.84 | 1 | – | 0.67 | 1
36 | O=C1C(=O)N(Cc2ccccc2)c2ccc(S(=O)(=O)N3CCC[C@H]3COc3ccc(C(F)(F)F)cc3)cc21 | -0.63 | -0.25 | -0.08 | 0.99 | -0.25 | -0.13
37 | CCN(CCN(C)C)C(=O)CNCc1cc(C(N)=O)ccn1.Cl.O | 0.89 | 0.8 | 0.65 | 0.4 | 0.74 | 0.94
38 | Cl.Cl.O=C(O)Cn1nnc(-c2ccc(CN(CCCCOc3ccc(CN4CCCC4)cc3)CCc3ccccc3)cc2)n1 | 1 | 0.91 | 0.66 | 1 | 0.53 | 0.89
39 | Br.N#Cc1ccc(-c2csc(NN=C3CCCC3)n2)cc1 | 0.63 | 1 | 0.31 | 0.62 | -0.06 | 0.21
40 | CNCCN(C)Cc1cn[nH]c1-c1ccc(OC2CC(OCCC3CCOCC3)C2)cc1 (configuration not stated) | 0.23 | 1 | 0.77 | 0.95 | 0.64 | 0.82
41 | COc1cc2c(NC3CCN(C)CC3)nc(N3CCCN(C)CC3)nc2cc1OCCCN(C)C | 0.63 | 1 | 1 | – | 0.78 | 1

— ChEMBL document CHEMBL5724709, “EUbOPEN Chemogenomics Library - IncuCyte” (2024)
